Some test systems named below: A549; HOP-92; HT-29; K562; KM12; MOLT-4; NCI-H23; NCI-H460; OVCAR-3; OVCAR-4; RXF 393; SF-268; SF-295; SF-539; SK-MEL-2; SN12C; SNB-19; SNB-75; UACC-257; HCT-15.
What all share (assay): NCI tumour cell line growth inhibition, 48 h

Molecules are shown by their SMILES.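 Exposure lasted 48 hours, with cells grown in 96-well plates and compounds tested at five concentrations. At the GI50, growth is halved.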 The source made the active and inactive calls. No stated cut-off is given here; in the data, active = GI50 up to about 1.1 µM and inactive = higher.

As for `O=C(NN1C(=O)C(Cl)C1c1ccccc1O)c1ccccc1O` (centres undefined), the GI50 with A549 is 17.8 µM (inactive); with HOP-92 it was > 100 µM (inactive); in the assay on HT-29, 6.61 µM (inactive); in the assay on K562, 32.4 µM (inactive); in the assay on KM12, 7.31 µM (inactive); in the assay with MOLT-4, 23.2 µM (inactive). In addition, the GI50 in the assay on NCI-H23 was 42.5 µM (inactive); in the assay on NCI-H460, 5.33 µM (inactive); in the assay on OVCAR-3, 3.13 µM (inactive); in the assay on OVCAR-4, 22.5 µM (inactive); in the assay on RXF 393, 63.5 µM (inactive); in the assay on SF-268 it was 44.1 µM (inactive). Also, the GI50 with SF-295 is 26.8 µM (inactive); in the assay with SF-539, 16.3 µM (inactive); with SK-MEL-2, 19.8 µM (inactive); in the assay on SN12C it was 89.5 µM (inactive); in the assay on SNB-19 it was 0.365 µM (active); with SNB-75, 49.9 µM (inactive). Further, in the assay on UACC-257, the GI50 was 22.2 µM (inactive).
Regarding `CCc1c(O)c2c(c(O)c1C(C)=O)C(=O)c1c(cc(O)c(C(=O)O)c1C(=O)O)C2=O`, the GI50 in the assay with A549 was > 100 µM (inactive); in the assay with HCT-15, more than 100 µM; in the assay with HOP-92, > 100 µM (inactive); with HT-29, > 100 µM (inactive); in the assay on K562, > 100 µM (inactive); in the assay with KM12 it was > 100 µM (inactive). For the same molecule, the GI50 in the assay with MOLT-4, in the assay with NCI-H23, in the assay with NCI-H460, with OVCAR-3, in the assay with OVCAR-4 and with RXF 393 was > 100 µM (inactive) each time. Also, the GI50 in the assay with SF-268, in the assay on SF-295, in the assay with SF-539, in the assay on SK-MEL-2, in the assay on SN12C and in the assay with SNB-19 was > 100 µM (inactive) throughout. Also, the GI50 in the assay with SNB-75 and in the assay on UACC-257 was > 100 µM (inactive) throughout.
As to `c1ccc2c3c(ccc2c1)-c1[nH]ncc1CCO3`, the GI50 in the assay with A549 was 37 µM (inactive); with HCT-15, 20.5 µM; with HOP-92, 27.5 µM (inactive); in the assay on HT-29 it was 32.5 µM (inactive); with K562, 32.8 µM (inactive); with KM12, 37.2 µM (inactive). For the same molecule, the GI50 was 20.1 µM (inactive) with MOLT-4; 25.2 µM (inactive) in the assay on NCI-H23; 25.6 µM (inactive) with NCI-H460; 27.7 µM (inactive) in the assay with OVCAR-3; 29.7 µM (inactive) in the assay on OVCAR-4; 33.3 µM (inactive) in the assay with RXF 393. For the same molecule, the GI50 in the assay with SF-268 is 37.8 µM (inactive); in the assay on SF-295, 28.4 µM (inactive); in the assay on SF-539 it was 25 µM (inactive); in the assay with SK-MEL-2, 36.1 µM (inactive); with SN12C it was 29.2 µM (inactive); in the assay with SNB-19, 47.1 µM (inactive). Besides, the GI50 in the assay on SNB-75 was 27.5 µM (inactive); in the assay on UACC-257, 27.7 µM (inactive).
Regarding `NC(=O)c1c[se]c(C2OC(COP(=O)(O)CP(=O)(O)OCC3OC(n4cnc5c(N)ncnc54)C(O)C3O)C(O)C2O)n1` (centres undefined), the GI50 in the assay on A549 is 51.3 µM (inactive); with HOP-92 it was > 100 µM (inactive); in the assay with HT-29, 53.2 µM (inactive); with K562, 15.9 µM (inactive); with KM12, 66.5 µM (inactive); with MOLT-4, 35.3 µM (inactive). In addition, the GI50 in the assay on NCI-H23 was > 100 µM (inactive); in the assay with NCI-H460, 44.8 µM (inactive); with OVCAR-3, > 100 µM (inactive); in the assay on OVCAR-4, > 100 µM (inactive); in the assay with RXF 393 it was > 100 µM (inactive); in the assay on SF-268, > 100 µM (inactive). For the same molecule, the GI50 in the assay with SF-295 was 53.3 µM (inactive); in the assay on SF-539, > 100 µM (inactive); in the assay on SK-MEL-2 it was > 100 µM (inactive); in the assay with SN12C it was > 100 µM (inactive); in the assay with SNB-19, > 100 µM (inactive); in the assay on SNB-75, > 100 µM (inactive). The GI50 in the assay with UACC-257 was > 100 µM (inactive).
Regarding `CC(C)C(=O)/C=C/c1c(Cl)cccc1Cl`, the GI50 was 4.15 µM (inactive) in the assay on A549; 4.55 µM in the assay on HCT-15; 12.9 µM (inactive) in the assay on HOP-92; 2.84 µM (inactive) with HT-29; 9.35 µM (inactive) in the assay with K562; 2.85 µM (inactive) in the assay with KM12. For the same molecule, the GI50 in the assay on MOLT-4 was 4.63 µM (inactive); with NCI-H23, 2.33 µM (inactive); in the assay on NCI-H460, 2.18 µM (inactive); in the assay with OVCAR-3, 2.41 µM (inactive); in the assay with OVCAR-4, 3.4 µM (inactive); with RXF 393, 5.43 µM (inactive). In addition, the GI50 in the assay with SF-268 was 2.39 µM (inactive); with SF-295, 11.6 µM (inactive); with SF-539 it was 3.04 µM (inactive); with SK-MEL-2, 2.25 µM (inactive); in the assay with SN12C it was 2.71 µM (inactive); with SNB-19 it was 10.8 µM (inactive). Also, the GI50 is 2.25 µM (inactive) in the assay on SNB-75 and 7.41 µM (inactive) with UACC-257.
For `Cc1ccc(S(=O)(=O)OC[C@@H]2CO2)cc1`, the GI50 is > 100 µM (inactive) in the assay with A549; more than 100 µM in the assay with HCT-15; > 100 µM (inactive) with HOP-92; > 100 µM (inactive) in the assay on HT-29; > 100 µM (inactive) with K562; > 100 µM (inactive) in the assay on KM12. For the same molecule, the GI50 in the assay on MOLT-4, with NCI-H23, with NCI-H460, in the assay with OVCAR-3, with OVCAR-4 and in the assay on RXF 393 was > 100 µM (inactive) each time. Also, the GI50 with SF-539, with SK-MEL-2, with SN12C, in the assay on SNB-19, in the assay on SNB-75 and in the assay with UACC-257 was > 100 µM (inactive) throughout.
As to `Cc1c2cnccc2c(C)c2c1c1ccccc1n2CC1CO1` (centres undefined), the GI50 in the assay on A549 was 1.51 µM (inactive); in the assay with HCT-15, 1.54 µM; with HOP-92, 1.81 µM (inactive); in the assay on HT-29 it was 1.72 µM (inactive); with K562, 0.859 µM (active); in the assay on KM12 it was 1.58 µM (inactive). Besides, the GI50 is 0.0213 µM (active) in the assay with MOLT-4; 0.422 µM (active) with NCI-H23; 0.454 µM (active) with NCI-H460; 1.57 µM (inactive) in the assay with OVCAR-3; 1.99 µM (inactive) in the assay on OVCAR-4; 0.427 µM (active) in the assay with RXF 393. Also, the GI50 is 0.323 µM (active) in the assay on SF-268; 1.33 µM (inactive) in the assay with SF-295; 1.21 µM (inactive) with SF-539; 1.66 µM (inactive) with SK-MEL-2; 0.174 µM (active) with SN12C; 2.04 µM (inactive) in the assay on SNB-19. For the same molecule, the results for the GI50 in the assay with SNB-75 and in the assay on UACC-257 were 0.652 µM (active) and 1.75 µM (inactive), respectively.
For the molecule `CSc1nc2c(c(N3CCOCC3)n1)C(O)n1c(nc3ccccc31)S2` (centres undefined), the GI50 was 29.6 µM (inactive) in the assay with A549; 63 µM with HCT-15; 72.3 µM (inactive) with HOP-92; > 100 µM (inactive) with HT-29; 53.6 µM (inactive) in the assay on KM12; > 100 µM (inactive) in the assay with MOLT-4. For the same molecule, the GI50 with NCI-H23 was 67.8 µM (inactive); with NCI-H460 it was 13.6 µM (inactive); in the assay with OVCAR-3, 69.2 µM (inactive); in the assay on OVCAR-4, 41 µM (inactive); with RXF 393 it was 80.4 µM (inactive); in the assay with SF-268 it was 26.2 µM (inactive). Moreover, the GI50 with SF-295 was 33.5 µM (inactive); in the assay on SF-539, 3.8 µM (inactive); in the assay on SK-MEL-2 it was 29.7 µM (inactive); with SN12C, 77.8 µM (inactive); in the assay with SNB-19 it was 17.5 µM (inactive); in the assay on SNB-75, 30.5 µM (inactive). Moreover, the GI50 in the assay with UACC-257 was > 100 µM (inactive).
For the molecule `CCOC(=O)Oc1cc2ccsc2c2c1c1ccccc1n2C(=O)OCC`, the GI50 in the assay with A549 is 48.9 µM (inactive); in the assay with HCT-15 it was 26.2 µM; with HOP-92, 22 µM (inactive); in the assay on HT-29 it was 69.5 µM (inactive); with K562, > 100 µM (inactive); with KM12, 49.9 µM (inactive). Besides, the GI50 was > 100 µM (inactive) in the assay with MOLT-4; 52.5 µM (inactive) in the assay with NCI-H23; 30.9 µM (inactive) in the assay on NCI-H460; 70.1 µM (inactive) in the assay on OVCAR-3; 40.3 µM (inactive) in the assay with OVCAR-4; 22.2 µM (inactive) in the assay on RXF 393. Moreover, the GI50 in the assay on SF-268 is 64 µM (inactive); in the assay on SF-295 it was 36.1 µM (inactive); in the assay on SF-539, 36.4 µM (inactive); in the assay with SK-MEL-2, 48.3 µM (inactive); in the assay with SN12C it was 37.8 µM (inactive); in the assay on SNB-75, 27.1 µM (inactive). In the assay with UACC-257, the GI50 was 91 µM (inactive).
For the molecule `CN1CCC(C(O)(c2ccccc2)c2ccc(Br)cc2)CC1` (centres undefined), the GI50 in the assay with A549 is 26.4 µM (inactive); with HCT-15 it was 35.6 µM; with HOP-92, 8.45 µM (inactive); with HT-29, 20 µM (inactive); in the assay on K562 it was 16.7 µM (inactive); with KM12 it was 18.6 µM (inactive). Further, the GI50 was 23.1 µM (inactive) with MOLT-4; 46.9 µM (inactive) in the assay on NCI-H23; 23.4 µM (inactive) with NCI-H460; 39.4 µM (inactive) with OVCAR-3; 22.7 µM (inactive) in the assay with OVCAR-4; 18.3 µM (inactive) with RXF 393. The GI50 in the assay on SF-268 was 31.5 µM (inactive); in the assay on SF-295 it was 17.9 µM (inactive); with SF-539 it was 17.6 µM (inactive); in the assay on SK-MEL-2, 16.2 µM (inactive); in the assay with SN12C, 16.9 µM (inactive); in the assay with SNB-19 it was 45.2 µM (inactive). For the same molecule, the GI50 was 16.6 µM (inactive) in the assay with SNB-75 and 15.4 µM (inactive) in the assay on UACC-257.

The values are drawn from ChEMBL document CHEMBL1201862, “PubChem BioAssay data set” (2004).
